Assay results taken from US12649748B2, “Wee1 inhibitor and use thereof” (JIANGSU TASLY DIYI PHARMACEUTICAL CO., LTD., priority 2021, dated 2026).

Assays:
[1] = Metabolic stability of liver microsomes in vitro (human); assay type: in vitro ADME; settings: read-out: Human T1/2/min
Protocol: Microsomes were taken out from the −80° C. refrigerator, rapidly melted in a 37° C. water bath and placed on ice until ready to use. The test article was diluted with DMSO to prepare a 10 mM stock solution, and then diluted with acetonitrile to a 0.5 mM secondary stock solution. The microsomes were diluted to 0.75 mg/ml using Buffer C; the secondary stock solution was then added to a final concentration of 1.5 μM of compound as working solution, based on n=2, 5 time points, 350 μL of each compound was prepared and placed on ice prior to use. NADPH was diluted with Buffer C to a working solution of 6 mM for the starter solution. An acetonitrile solution containing an internal standard was prepared as the precipitant, and Verapamil-HCl was chosen as the internal standard at a concentration of 4 ng/ml.
A round-bottom well plate was taken, noted as the reaction plate, and the prepared working solution for each compound was dispensed into the well plate according to the number of replicates and time points (0 h samples are also added to the reaction plate), 30 μL/well; the plate was incubated at 37° C. for 10 min. A separate plate with pointed bottom wells, noted as a precipitation plate, was added with 135 μL precipitant per well; 0 h samples were transferred to the plate after 10 min incubation and 15 μL of starter solution was added; the plate was placed on ice before centrifugation.
The diluted starter solution was added in sufficient quantity to the dispensing plate to facilitate the multichannel pipette aspiration operation.
The reaction was carried out on a warm incubation shaker and 15 μL of starter solution/sample is added to the plate using a multichannel pipette. The reaction was mixed with a slight shake to initiate the reaction, which was accurately timed and recorded using a timer;
After the reaction time had elapsed, all the solution in the plate was aspirated using the multichannel pipette and added to the precipitation plate to terminate the reaction at that point in time. After all reactions had been terminated, the plates were shaken for ten minutes on a plate shaker at 600 rpm to precipitate the protein. The plate was centrifuged at 4° C. for 15 minutes at maximum rpm. 80 μL of supernatant was taken, 320 μL of pure water was added and mixed for LC-MS analysis.

[2] = Plasma protein binding (PPB), human; assay type: in vitro ADME; settings: 5 h dialysis, read-out: Plasma protein binding rate (%) Human (converted)
Protocol: Sample preparation: The compound was dissolved in DMSO to a stock solution of 10 mM, then the compound was diluted with PBS to a secondary stock solution of 0.02 mM, and then the above 0.02 mM was diluted to 1 μM using blank plasma, which was the sample to be incubated.
Dialysis set-up preparation: 400 μL of blank PBS was first added to the white wells of the equilibrated dialysis plate and 200 μL of the configured plasma sample was added to the red wells, and the dialysis plate was sealed with a sealing film.
Recovery plate preparation: Two 96-well deep-well plates, labelled T0 and T5, were prepared and all plasma samples were added at n=2. 300 μL of acetonitrile (Verapamil-HCl, 4 ng/mL) was added directly to the TO plate, followed by 50 μL of blank PBS mix well for 5 min and left to stand in a 4° C. refrigerator until the end of the incubation.
Experimental Operation: The dialysis device and the T5 plate were incubated together for 5 h in a microplate thermostatic shaker (37° C., using 300 rpm or minimum speed). At the end of the incubation, 300 μL of acetonitrile (Verapamil-HCl, 4 ng/mL) was added and 50 μL of PBS solution was added. At the end of the dialysis incubation, a new 96-well deep well plate was taken. […]

[3] = Compound pharmacokinetics in mice; assay type: in vivo; settings: male ICR mice, oral gavage 10 mg/kg, plasma; for Cmax / AUC(0-inf) / half-life: mouse; for AUC(0-inf): read-out: AUCinf—Pred; for half-life: read-out: T½ (converted)
Protocol: To investigate the pharmacokinetic properties of the compound in mice, six male ICR mice were given the compound by oral gavage (10 mg/kg) at the corresponding dose, and each route of administration was divided into two groups: group A mice had anticoagulated whole blood collected at 5 min, 30 min, 2 h and 8 h after administration, while group B mice had anticoagulated whole blood collected at 15 min, 1 h, 4 h and 24 h after administration, isolated plasma;
The plasma concentrations of the compounds were determined by LC-MS using a standard curve calibration method. Plasma concentration-time data were fitted to pharmacokinetic parameters using Winnolin 5.2 software.

CYP2C19 = CYP2C19 (Homo sapiens, UniProt P33261); assay: Inhibition of cytochrome P450, CYP2C19; assay type: in vitro ADME; settings: CYP2C19 enzyme, pH 7.4, probe EOMCC, read-out: CYP inhibition/% 2C19; for inhibition at 30 min, 1 µM: compound concentration 1 μM; for inhibition at 30 min, 10 µM: compound concentration 10 μM
Protocol: Enzymatic experiments were performed to quantify the inhibition of CYP450 enzyme activity of each isoform of CYP450 by small molecule inhibitors through fluorescence generated by the oxidation of the substrate by cytochrome P450. […] The Solution B composition used for the experiment was: 40 U/mL G6PDH (Sigma-aldrich, Cat #G6378). The substrate mix was 0.05× Solution A, 0.01× Solution B, 50 mM Potassium Phosphate, 0.01 mM BOMCC/0.01 mM EOMCC/0.001 mM DBOMF. […] The data were analyzed and processed using GraphPad Prism 6 software to obtain IC50 values.

Sequence of CYP2C19 (P33261 whole entry, canonical isoform): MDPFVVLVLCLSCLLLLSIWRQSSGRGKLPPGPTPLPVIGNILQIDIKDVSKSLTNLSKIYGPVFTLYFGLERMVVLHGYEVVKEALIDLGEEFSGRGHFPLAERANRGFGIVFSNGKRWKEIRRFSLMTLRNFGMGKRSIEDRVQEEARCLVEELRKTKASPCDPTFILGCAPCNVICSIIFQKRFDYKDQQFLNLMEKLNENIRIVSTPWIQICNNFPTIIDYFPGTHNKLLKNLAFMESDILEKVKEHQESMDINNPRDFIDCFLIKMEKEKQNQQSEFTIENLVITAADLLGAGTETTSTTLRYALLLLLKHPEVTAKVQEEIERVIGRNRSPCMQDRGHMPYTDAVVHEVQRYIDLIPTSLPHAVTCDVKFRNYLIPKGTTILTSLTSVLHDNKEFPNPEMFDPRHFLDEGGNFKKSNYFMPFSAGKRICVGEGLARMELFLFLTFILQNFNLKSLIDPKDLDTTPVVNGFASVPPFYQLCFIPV

Row | SMILES | half-life at 1 µM [1] [h] | inhibition at 30 min, 1 µM (CYP2C19) [%] | inhibition at 30 min, 10 µM (CYP2C19) [%] | fraction unbound at 5 h, 1 µM [2] | Cl_pred [3] [mL/min/kg] | Cmax [3] [ng/mL] | AUC(0-inf) [3] [ng·h/mL] | half-life [3] [h]
1 | C=CCn1c(=O)c2cnc(Nc3ccc(N4CCN(C)CC4)cc3)nc2n1-c1cccc(C(C)(C)O)n1 [AZD-1775, reference compound] | > 2 |  |  | 0.36 | 347 | 445 | 500 | 0.77
2 | CN1CCN(c2ccc(Nc3ncc4cnn(-c5cccc(N=S(C)(C)=O)n5)c4n3)cc2)CC1 [Compound 1] | > 2 | 3.3 | 10.7 | 0.144 | 658 | 169 | 260 | 1.71
3 | CN1CCN(c2ccc(Nc3ncc4cnn(-c5cccc(C(C)(C)O)n5)c4n3)cc2)CC1 [Compound 2] | > 2 | 3.8 | 9.8 |  |  |  |  | 

Now from value to compound, other results behind:

Row | half-life at 1 µM [1] [h] | inhibition at 30 min, 1 µM (CYP2C19) [%] | inhibition at 30 min, 10 µM (CYP2C19) [%] | SMILES | fraction unbound at 5 h, 1 µM [2] | Cl_pred [3] [mL/min/kg] | Cmax [3] [ng/mL] | AUC(0-inf) [3] [ng·h/mL] | half-life [3] [h]
4 |  | -16.5 | -8.3 | CS(C)(=O)=Nc1cccc(-n2ncc3cnc(Nc4ccc(N5CCOCC5)cc4)nc32)n1 [Compound 6] |  |  |  |  | 
5 | > 2 |  |  | Cc1cc(Nc2ncc3cnn(-c4cccc(N=S(C)(C)=O)n4)c3n2)ccc1N1CCC(N(C)C)CC1 [Compound 14] |  |  |  |  | 
6 | > 2 |  |  | Cc1cc(Nc2ncc3cnn(-c4cccc(N=S(C)(C)=O)n4)c3n2)ccc1N1CCN(C)CC1 [Compound 16] |  |  |  |  | 
